Results: ChEMBL document CHEMBL1201862, “PubChem BioAssay data set” (2004)
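Growth conditions: 96-well plates. Treatment: test compound, 48 hours, 5 concentrations. Analysis: linear interpolation between bracketing concentrations; unreached endpoints set to highest concentration. Here, GI50 denotes the concentration required for 50% inhibition of growth.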 Calls of active or inactive are those of the source. Rule as the data show it: active = GI50 up to about 1.1 µM and inactive = higher. Non-standard residues stand in square brackets, D forms with d. Residues, ends and D or L forms follow the SMILES beside them. *: point of attachment. Ac5c = NC1(C(=O)O)CCCC1; Boc = CC(C)(C)OC(=O)*; tBu = CC(C)(C)*

How the values were obtained:
Assay in all cases: DTP human tumour cell line panel, 48 h
786-0 = test system: 786-0
ACHN = test system: ACHN
CAKI-1 = test system: CAKI-1
COLO 205 = test system: COLO 205
HCC 2998 = test system: HCC 2998
HOP-92 = test system: HOP-92
K562 = test system: K562
LOX IMVI = test system: LOX IMVI
M14 = test system: M14
MDA-N = test system: MDA-N
NCI/ADR-RES = test system: NCI/ADR-RES
OVCAR-8 = test system: OVCAR-8
RPMI-8226 = test system: RPMI-8226
SF-539 = test system: SF-539
SK-MEL-28 = test system: SK-MEL-28
SNB-19 = test system: SNB-19
T47D = test system: T47D
UACC-257 = test system: UACC-257
UACC-62 = test system: UACC-62
UO-31 = test system: UO-31

SMILES	GI50 (786-0)	GI50 (ACHN)	GI50 (CAKI-1)	GI50 (COLO 205)	GI50 (HCC 2998)	GI50 (HOP-92)	GI50 (K562)	GI50 (LOX IMVI)	GI50 (M14)	GI50 (MDA-N)	GI50 (NCI/ADR-RES)	GI50 (OVCAR-8)	GI50 (RPMI-8226)	GI50 (SF-539)	GI50 (SK-MEL-28)	GI50 (SNB-19)	GI50 (T47D)	GI50 (UACC-257)	GI50 (UACC-62)	GI50 (UO-31)
CCOC(=O)c1sc2c(c1OC(=O)c1ccc(Cl)cc1Cl)c(=O)n(-c1ccccc1)c(=S)n2-c1ccccc1	25.6 µM (inactive)	4.85 µM (inactive)	17.9 µM (inactive)	3.94 µM (inactive)	24.5 µM (inactive)	3.49 µM (inactive)	3.75 µM (inactive)	20.8 µM (inactive)	29.4 µM (inactive)	22 µM (inactive)	9.66 µM (inactive)	6.11 µM (inactive)	4.58 µM (inactive)	25.9 µM (inactive)	> 76.4 µM (inactive)	> 24 µM (inactive)	> 35.5 µM (inactive)	35.3 µM (inactive)	20 µM (inactive)	13.4 µM (inactive)
O=c1c2ncn(C3CC(O)C(CO)O3)c2nnn1Cc1ccccc1[N+](=O)[O-] (stereo not given)	> 100 µM (inactive)	> 100 µM (inactive)	> 100 µM (inactive)	> 100 µM (inactive)	> 100 µM (inactive)	57.8 µM (inactive)	> 100 µM (inactive)	> 100 µM (inactive)	> 100 µM (inactive)	> 100 µM (inactive)	> 100 µM (inactive)	> 100 µM (inactive)	> 100 µM (inactive)	> 100 µM (inactive)	> 100 µM (inactive)	> 100 µM (inactive)	> 100 µM (inactive)	> 100 µM (inactive)	> 100 µM (inactive)	> 100 µM (inactive)
CC(OC(C)(C)C)C(NC(=O)C(CCCCNC(=O)OC(C)(C)C)NC(=O)C(Cc1c[nH]c2ccccc12)NC(=O)C(N)Cc1ccccc1)C(=O)NC(Cc1ccccc1)C(=O)NC1(C(=O)O)CCCC1 (stereo not given) (H-FWK(Boc)T(tBu)F[Ac5c]-OH; configuration not given here)	> 100 µM (inactive)	> 100 µM (inactive)	> 100 µM (inactive)	> 100 µM (inactive)	> 100 µM (inactive)	> 100 µM (inactive)	> 100 µM (inactive)	> 100 µM (inactive)	> 100 µM (inactive)	> 100 µM (inactive)	> 100 µM (inactive)	> 100 µM (inactive)	> 100 µM (inactive)	> 100 µM (inactive)	> 100 µM (inactive)	> 100 µM (inactive)	79.4 µM (inactive)	> 100 µM (inactive)	> 100 µM (inactive)	> 100 µM (inactive)
C=CCN(c1cc(OC)c2[nH]c(C(=O)OCC)c(C)c2c1[N+](=O)[O-])S(C)(=O)=O	19 µM (inactive)	26.1 µM (inactive)	34 µM (inactive)	15.5 µM (inactive)	45.5 µM (inactive)	18.6 µM (inactive)	15.1 µM (inactive)	19.3 µM (inactive)	30.8 µM (inactive)	18.1 µM (inactive)	23.6 µM (inactive)	28.6 µM (inactive)	14.6 µM (inactive)	33.6 µM (inactive)	43.2 µM (inactive)	28.4 µM (inactive)	15.2 µM (inactive)	39.9 µM (inactive)	26.1 µM (inactive)	21.5 µM (inactive)
C[C@]12CC[C@H]3[C@@H](CC[C@]4(O)C[C@@H](O)CC[C@]34C=O)[C@@]1(O)CC[C@@H]2C1=CC(=O)OC1 [STROPHANTHIDIN]	0.321 µM (active)	0.142 µM (active)	0.19 µM (active)	1.36 µM (inactive)	4.27 µM (inactive)	1.25 µM (inactive)	0.605 µM (active)	0.453 µM (active)	1.07 µM (active)	0.372 µM (active)	0.403 µM (active)	0.498 µM (active)	0.506 µM (active)	0.294 µM (active)	1.73 µM (inactive)	1.58 µM (inactive)	0.697 µM (active)	0.766 µM (active)	1.52 µM (inactive)	0.444 µM (active)
Cc1nn(-c2ccccn2)c2c1C(SC#N)=C(C=O)CC2	12.4 µM (inactive)	16.3 µM (inactive)	5.64 µM (inactive)	10.5 µM (inactive)	11.9 µM (inactive)	16.5 µM (inactive)	8.07 µM (inactive)	15.7 µM (inactive)	15.8 µM (inactive)	17.7 µM (inactive)	20.1 µM (inactive)	15.9 µM (inactive)	13.3 µM (inactive)	19.1 µM (inactive)	21.2 µM (inactive)	19.6 µM (inactive)	4.05 µM (inactive)	5.12 µM (inactive)	5.71 µM (inactive)	14.6 µM (inactive)
CC(=O)OC1[C@@H](OC(C)=O)CN(OCc2ccccc2)C[C@H]1OC(C)=O (stereo not given in full)	> 100 µM (inactive)	> 100 µM (inactive)	> 100 µM (inactive)	> 100 µM (inactive)	> 100 µM (inactive)	> 100 µM (inactive)	> 100 µM (inactive)	> 100 µM (inactive)	> 100 µM (inactive)	> 100 µM (inactive)	> 100 µM (inactive)	> 100 µM (inactive)	> 100 µM (inactive)	> 100 µM (inactive)	> 100 µM (inactive)	> 100 µM (inactive)	> 100 µM (inactive)	> 100 µM (inactive)	> 100 µM (inactive)	> 100 µM (inactive)
Cc1cccc2c1CC(Cc1ccccc1C(=O)O)C2=O (stereo not given)	> 100 µM (inactive)	> 100 µM (inactive)	> 100 µM (inactive)	> 100 µM (inactive)	> 100 µM (inactive)	> 100 µM (inactive)	> 100 µM (inactive)	> 100 µM (inactive)	> 100 µM (inactive)	> 100 µM (inactive)	> 100 µM (inactive)	> 100 µM (inactive)	> 100 µM (inactive)	> 100 µM (inactive)	> 100 µM (inactive)	> 100 µM (inactive)	> 100 µM (inactive)	> 100 µM (inactive)	> 100 µM (inactive)	> 100 µM (inactive)
Cn1c2ccccc2c(=NNc2ccc(C(=O)O)cc2)c2ccccc21	19.8 µM (inactive)	15.3 µM (inactive)	21.6 µM (inactive)	15.3 µM (inactive)	8.38 µM (inactive)	20.5 µM (inactive)	6.79 µM (inactive)	10.6 µM (inactive)	16.9 µM (inactive)	17.7 µM (inactive)	23.9 µM (inactive)	14.8 µM (inactive)	12.9 µM (inactive)	19.2 µM (inactive)	26 µM (inactive)	21.8 µM (inactive)	13.4 µM (inactive)	30.1 µM (inactive)	18.5 µM (inactive)	15.1 µM (inactive)
CC(C)OC(=O)NNc1cc(Cl)ccc1Cl	> 100 µM (inactive)	> 100 µM (inactive)	79.6 µM (inactive)	> 100 µM (inactive)	61 µM (inactive)	34.8 µM (inactive)	19.2 µM (inactive)	67.3 µM (inactive)	> 100 µM (inactive)	73.6 µM (inactive)	> 100 µM (inactive)	> 100 µM (inactive)	44.5 µM (inactive)	> 100 µM (inactive)	> 100 µM (inactive)	> 100 µM (inactive)	42 µM (inactive)	39.7 µM (inactive)	43.7 µM (inactive)	> 100 µM (inactive)
